Measurements reported in patent publication US8921424B2, “Histone deacetylase inhibitors, process for preparation and uses thereof” (Zhejiang Hisun Pharmaceutical Co. Ltd., priority 2007, dated 2014).
Read-outs that look alike come from different tables or passages of the source.

Assays:
[1] = system: MDAMB435; test: Cell-based proliferation assay (SRB), MDAMB435; settings: Homo sapiens
Method: (§1) Cell-Based Proliferation Assay for Determination of GI50 Values
(§2) A rapid multiwell plate assay using Sulforhodamine B (SRB) protein stain was adopted to evaluate the growth inhibitory effects of the compounds of the present invention. The screening panel of cancer cell lines includes Colo205 and HCT116 colon cancer cells, MDA-MB231 and MDA-MB435 chest cancer cells, A549 lung cancer cells, and Chinese hamster ovary cell line CHO, which were obtained from ATCC.
(§3) The cell line Colo205 is grown in RPMI 1640 medium containing 2 mM L-glutamine, 5% fetal bovine serum, and 1.0 mM sodium pyruvic acid. Cell lines A549 and MDA-MB231 are grown in RPMI 1640 medium containing 2 mM L-glutamine and 5% fetal bovine serum. The cell line MDA-MB435 is grown in DMEM medium containing 2 mM L-glutamine and 5% fetal bovine serum. The cell lines HCT 116 is grown in IMEM medium containing 2 mM L-glutamine and 5% fetal bovine serum. The CHO cell line, used as a normal control on toxicity, is grown in a special medium for cell line. For a typical screening experiment, A549 and Colo205 cells are inoculated into 96-well microtiter plates, with 100 μL per well, and 2000 and 5000 cells per well respectively for either cell line. MDA-MB435, HCT116, MDA-MB231 and CHO cells are also inoculated into 96-well microtiter plates, with 6000 cells per well. After cell inoculation, the microtiter plates are incubated at 37° C., 5% CO2, and 100% relative humidity for 24 hr in order to make cells adhere to well wall.
(§4) After 24 h incubation or time zero for drug addition, with each cell line 50 μl of cold 50% (w/v) TCA is added to wells used for control to fix cells in situ. Also at time zero, cells in other wells are treated with 100 μl of compound of different concentrations for 24 hr, 48 hr, and 72 hr respectively, with varying final compound concentration (0.1 μM, 1 μM, 5 μM 10 μM). For each treatment duration at each compound concentration, there are triplicate wells, as well as an array of control wells including a blank control well (cell culture medium only, no cells), a no-compound control well (adding same volume of cell culture medium but no compound), a positive control well (treated with Suberoylanilide hydroxamic acid (SAHA)), and normal cell well control (CHO cells). Following the addition of compounds, cell plates are incubated for 24 h, 48 h or 72 h per treatment group at 37° C., 5% CO2, and 100% relative humidity. The Treatment is then terminated by addition of cold TCA and incubation of 1 hr at 4° C. The supernatant is discarded, and all wells are washed five times with de-ioned water and air dried. Then each well is added with 100 μl sulforhodamine B (SRB) solution (0.4% (w/v) made in 1% acetic acid) and cell plates are incubated for 20-30 minutes at room temperature. After staining, unbound dye is removed by washing five times with 1% acetic acid and the plates are air dried. Bound stain is subsequently solubilized with 10 mM (200 μL) Tris base with the help of 5 min platform vibration or pipetting up and down, and the absorbance is read on an automated plate reader (M5 detection system, MD Group Ltd.) at a wavelength of 565 nm (calibrated zero reading of blank control at wavelength of 690 nm). The analytical software, XL-fit has been used to generate GI50 from a series of data thus obtained.

[2] = target: HDAC6 (Homo sapiens (Human), UniProt Q9UBN7); test: In vitro HDACi assay, HDAC6; type: biochemical; settings: Table 3; read-out: IC50 (nM) HDAC6
Method: (§5) In Vitro HDACi Assay for Determination of IC50 Values
(§6) The assay has been carried out in white 96 well formats according to the BIOMOL's method. […] The reaction mixture was incubated at room temperature for 2 hours. Flur de lys Developer was added and the reaction was incubated for 10 min. Briefly, deacetylation of the substrate sensitizes to the developer, which then generates a fluorophore. The fluorophore is excited with 360 nm light and the emitted light (460 nm) is detected on a fluorometric plate reader (Molecular Device Ultra Microplate detection system, MD Group Ltd).
(§7) The analytical software, Prism 4.0 (GraphPad Software Inc) has been used to generate IC50 from a series of data.

[3] = Microsomal stability and clearance; type: in vitro ADME, human, mouse; settings: microsomal stability; Table 4
Method: Measure of Microsomal Stability and Clearance with Compounds of this Invention
Verapamil (positive control) and compound solution, both at 10 mM, are diluted 200 fold. There are six reaction time points in the experiment (0 min, 5 min, 15 min, 30 min, 45 min, and 60 min), and triplicate samples are used for each data point. There are controls for time zero and negative drug effect (negative control containing no incubation buffer or enzyme). For each compound or Verapamil sample, there are also samples treated with compound or Verapamil at concentrations of no positive effect (at 5 μM and 2.5 μM, respectively). Diluted positive control (Verapamil) and compound solution are mixed with pre-heated (37° C.) incubation buffer (100 mM potassium phosphate buffer, NADPH regeneration system solution B, NAPDH regeneration system solution A, HLM/MLM in Milli-Q ultrapure water), and incubated at 37° C. for 10 min. 100 μL of stop solution mixture is (containing 80% acetonitrile, and 20% DMSO, both of HPLC grade) is dispensed into wells of separate sampling plates into each well. At each reaction time point (0 min, 5 min, 15 min, 30 min, 45 min, and 60 min) 50 μL of reaction solution is taken from wells in the incubation plate and transferred to its corresponding well in the sampling plate, and mixed by pipetting up and down with stop solution already added there. The sampling plates are then covered, placed on ice, and centrifuged at 2,000 rpm at 4° C. for 15 min. 100 μL supernatant is then taken from each well to LC/MS analysis (or stored at 4° C. in refrigerator until analysis).
Data analysis: % remaining of compound is calculated by area of each time point with respect to time 0% remaining against time (min) curve is plotted using the first-phase exponential decay equation y=y0e(−kT) on the Prism 4.0. Results are shown in the format of TOP, K, t1/2 (min), R2 value and % remaining against time curve.

[4] = system: HDACs; test: In vitro HDACi assay (BIOMOL fluorescent-based HDAC activity assay); type: biochemical
Method: as §5, §6, §7

[5] = system: HCT116; test: Cell-based proliferation assay (SRB), HCT116; settings: Homo sapiens
Method: as §1, §2, §3, §4

[6] = system: HL-60; test: Cell-based proliferation assay (SRB), HL-60; settings: Homo sapiens
[7] = system: MDAMB231; test: Cell-based proliferation assay (SRB), MDAMB231; settings: Homo sapiens, MDA-MB-231; Table 4
Method: as §1, §2, §3, §4

[8] = system: BXPC-3; test: Cell-based proliferation assay (SRB), BXPC-3; settings: Homo sapiens
[9] = system: Colo205; test: Cell-based proliferation assay (SRB), Colo205; settings: Homo sapiens
Method: as §1, §2, §3, §4

[10] = system: SKOV-3; test: Cell-based proliferation assay (SRB), SKOV-3; settings: Homo sapiens
Method: as §1, §2, §3, §4

[11] = Table 3, read-out: IC50 (nM) HDACs
[12] = Table 4, read-out: HDAC enzyme inhibition activity IC50

HDAC6, sequence (Q9UBN7 whole entry, species assumed): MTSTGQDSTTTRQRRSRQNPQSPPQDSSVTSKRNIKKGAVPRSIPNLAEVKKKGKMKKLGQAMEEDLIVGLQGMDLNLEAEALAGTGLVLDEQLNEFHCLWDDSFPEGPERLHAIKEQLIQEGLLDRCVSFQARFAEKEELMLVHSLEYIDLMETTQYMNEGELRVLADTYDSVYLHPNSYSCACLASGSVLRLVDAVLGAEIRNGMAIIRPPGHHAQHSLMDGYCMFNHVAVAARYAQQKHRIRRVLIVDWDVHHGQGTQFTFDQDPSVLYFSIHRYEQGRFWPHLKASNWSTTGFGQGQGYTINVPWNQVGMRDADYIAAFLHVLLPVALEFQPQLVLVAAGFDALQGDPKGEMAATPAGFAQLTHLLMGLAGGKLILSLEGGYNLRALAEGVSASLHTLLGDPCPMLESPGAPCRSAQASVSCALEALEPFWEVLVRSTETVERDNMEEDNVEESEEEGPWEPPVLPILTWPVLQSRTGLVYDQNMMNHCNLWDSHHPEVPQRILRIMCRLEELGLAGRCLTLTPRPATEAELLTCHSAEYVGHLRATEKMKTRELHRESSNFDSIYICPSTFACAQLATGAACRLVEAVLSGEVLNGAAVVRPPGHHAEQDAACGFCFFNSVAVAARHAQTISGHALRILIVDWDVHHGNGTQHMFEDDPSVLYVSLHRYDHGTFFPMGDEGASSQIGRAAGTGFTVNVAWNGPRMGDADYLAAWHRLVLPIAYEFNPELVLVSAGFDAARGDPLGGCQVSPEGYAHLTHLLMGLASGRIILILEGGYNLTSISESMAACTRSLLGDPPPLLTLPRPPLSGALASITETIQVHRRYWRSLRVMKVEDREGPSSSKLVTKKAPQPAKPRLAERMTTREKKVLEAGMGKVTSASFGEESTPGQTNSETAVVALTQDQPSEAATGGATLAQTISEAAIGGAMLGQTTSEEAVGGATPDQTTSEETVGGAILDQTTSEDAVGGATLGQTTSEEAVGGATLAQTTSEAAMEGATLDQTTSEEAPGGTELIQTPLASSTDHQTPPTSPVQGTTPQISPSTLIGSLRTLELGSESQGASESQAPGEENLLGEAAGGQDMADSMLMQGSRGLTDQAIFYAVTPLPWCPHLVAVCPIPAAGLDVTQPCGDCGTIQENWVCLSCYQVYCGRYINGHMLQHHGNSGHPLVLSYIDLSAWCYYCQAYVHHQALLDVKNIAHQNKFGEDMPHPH

Structure (SMILES) | GI50 ([1]; MDA-MB-435, Table 3) | GI50 ([1]; MDA-MB-435, Table 4) | IC50 [2] | half-life [3] | IC50 [4, 11] | IC50 [4, 12] | GI50 ([5]; HCT-116, Table 3) | GI50 ([5]; HCT-116, Table 4) | GI50 ([6]; HL-60, Table 3) | GI50 ([6]; HL-60, Table 4) | GI50 [7] | GI50 ([8]; BXPC-3, Table 3) | GI50 ([9]; COLO 205, Table 3) | GI50 ([9]; COLO 205, Table 4) | GI50 ([10]; SK-OV-3, Table 3) | GI50 ([10]; SK-OV-3, Table 4) | GI50 ([8]; BXPC-3, Table 4)
CCCNc1cc(/C=C/C(=O)NO)ccc1SCCN(CC)CC [Example 3, 3-(4-(2-(diethylamino)ethylthio)-3-(propylamino)phenyl)-N-hydroxy-acrylamide] | 2.6 µM | 2.6 µM | 653 nM | 1.8 h | 19 nM | 19000 nM | 3.65 µM | 3.65 µM | 1.98 µM | 1.98 µM | 2.98 µM | 14.5 µM | 2.95 µM | 2.95 µM | 2.58 µM | 2.58 µM | 
CCN(CC)CCSc1ccc(/C=C/C(=O)NO)cc1NC(=O)C(Cl)Cl [Example 13, 3-(3-(2,2-dichloroacetamido)-4-(2-(diethylamino)ethylthio)phenyl)-N-hydroxy-acrylamide] | 5.96 µM |  |  |  |  |  | 2.56 µM |  | 4.31 µM |  |  | 97.7 µM | 5.63 µM |  | 3.82 µM |  | 
CCN(CC)CCSc1ccc(/C=C/C(=O)NO)cc1NC [Example 8, 3-(4-(2-(diethylamino)ethylthio)-3-(methylamino)phenyl)-N-hydroxy-acrylamide] | 16.6 µM |  | 800 nM |  | 95 nM |  | 13.9 µM |  | 15.2 µM |  |  | 16 µM | 10.6 µM |  | 15.6 µM |  | 
CCN(CC)CCSc1ccc(/C=C/C(=O)NO)cc1NC(C)=O [Example 4] |  | 3.56 µM | 357 nM | 1.6 h | > 100 nM | 86000 nM |  | 2.02 µM |  | 1.63 µM | 4.63 µM |  |  | 2 µM |  | 0.7 µM | 3.56 µM
CCN(CC)CCSc1ccc(/C=C/C(=O)NO)cc1[N+](=O)[O-] [Example 5, 3-(4-(2-(diethylamino)ethylthio)-3-nitrophenyl)-N-hydroxy-acrylamide] | 3.56 µM |  | 313 nM | 2.2 h | 86 nM | 35000 nM | 2.02 µM |  | 1.63 µM |  | 1.92 µM | 95.4 µM | 2 µM |  | 0.7 µM |  | 
C=CCNc1cc(/C=C/C(=O)NO)ccc1SCCN(CC)CC [Example 7, 3-(3-(allylamino)-4-(2-(di-ethylamino)ethylthio)phenyl)-N-hydroxy-acrylamide] |  |  | 350 nM |  | > 100 nM |  |  |  |  |  |  |  |  |  |  |  | 

Continued by falling IC50 [2], values first:

GI50 ([1]; MDA-MB-435, Table 3) | GI50 ([1]; MDA-MB-435, Table 4) | IC50 [2] | half-life [3] | IC50 [4, 11] | IC50 [4, 12] | GI50 ([5]; HCT-116, Table 3) | GI50 ([5]; HCT-116, Table 4) | GI50 ([6]; HL-60, Table 3) | GI50 ([6]; HL-60, Table 4) | GI50 [7] | GI50 ([8]; BXPC-3, Table 3) | GI50 ([9]; COLO 205, Table 3) | GI50 ([9]; COLO 205, Table 4) | GI50 ([10]; SK-OV-3, Table 3) | GI50 ([10]; SK-OV-3, Table 4) | GI50 ([8]; BXPC-3, Table 4) | Structure (SMILES)
3.33 µM | 3.33 µM | 627 nM | 1.4 h | 98 nM | 98000 nM | 0.78 µM | 0.78 µM | 3.52 µM | 3.52 µM | 3.49 µM | 15 µM | 5.68 µM | 5.68 µM | 4.57 µM | 4.57 µM |  | CCN(CC)CCSc1ccc(/C=C/C(=O)NO)cc1NCCCc1ccccc1 [Example 1, 3-(4-(2-(diethylamino)ethylthio)-3-(3-phenylpropylamino)phenyl)-N-hydroxy-acrylamide]
 |  | 310 nM |  | > 100 nM |  |  |  |  |  |  |  |  |  |  |  |  | C=CCCCNc1cc(/C=C/C(=O)NO)ccc1SCCN(CC)CC [Example 12, 3-(4-(2-(diethylamino)ethylthio)-3-(pent-4-enylamino)phenyl)-N-hydroxy-acrylamide]
 |  | 295 nM |  | > 100 nM |  |  |  |  |  |  |  |  |  |  |  |  | CCN(CC)CCSc1ccc(/C=C/C(=O)NO)cc1N [Example 9, 3-(3-amino-4-(2-(diethylamino)ethylthio)phenyl)-N-hydroxy-acrylamide]
1.95 µM |  | 275 nM | 2.5 h | 35 nM | 96000 nM | 0.78 µM |  | 1.32 µM |  | 4.39 µM | 4.33 µM | 2.28 µM |  | 2.81 µM |  |  | CCN(CC)CCSc1ccc(/C=C/C(=O)NO)cc1NCc1ccccc1 [Example 6, 3-(3-(benzylamino)-4-(2-(di-ethylamino)ethylthio)phenyl)-N-hydroxy-acrylamide]
10.2 µM |  | 200 nM |  | 55 nM |  | 18.2 µM |  | 15.7 µM |  |  | 19.9 µM | 17.6 µM |  | 16.9 µM |  |  | CCCCCNC(=O)Nc1cc(/C=C/C(=O)NO)ccc1SCCN(CC)CC [Example 10, 3-(4-(2-(diethylamino)ethylthio)-3-(3-pentylureido)phenyl)-N-hydroxy-acrylamide]
